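Test compounds were applied to cells in 96-well plates for 48 hours at 5 doses. TGI: concentration producing complete growth inhibition.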
Columns and labels:
Assay in all cases: inhibition of tumour cell growth, NCI panel, 48 h
786-0 renal = system: 786-0 renal
A498 renal = system: A498 renal
A549 NSCLC = system: A549 NSCLC
ACHN renal = system: ACHN renal
BT-549 breast = system: BT-549 breast
CAKI-1 renal = system: CAKI-1 renal
CCRF-CEM leukemia = system: CCRF-CEM leukemia
COLO 205 colon = system: COLO 205 colon
DU-145 prostate = system: DU-145 prostate
EKVX NSCLC = system: EKVX NSCLC
HCC-2998 colon = system: HCC-2998 colon
HCT-116 colon = system: HCT-116 colon
HCT-15 colon = system: HCT-15 colon
HL-60(TB) leukemia = system: HL-60(TB) leukemia
HOP-62 NSCLC = system: HOP-62 NSCLC
HOP-92 NSCLC = system: HOP-92 NSCLC
HS 578T breast = system: HS 578T breast
HT29 colon = system: HT29 colon
IGROV1 ovarian = system: IGROV1 ovarian
K-562 leukemia = system: K-562 leukemia
KM12 colon = system: KM12 colon
LOX IMVI melanoma = system: LOX IMVI melanoma
M14 melanoma = system: M14 melanoma
MALME-3M melanoma = system: MALME-3M melanoma
MCF7 breast = system: MCF7 breast
MDA-MB-231 breast = system: MDA-MB-231 breast
MDA-MB-435 = system: MDA-MB-435
MDA-N = system: MDA-N
MOLT-4 leukemia = system: MOLT-4 leukemia
NCI-H226 lung = system: NCI-H226 lung
NCI-H23 lung = system: NCI-H23 lung
NCI-H460 lung = system: NCI-H460 lung
NCI-H522 lung = system: NCI-H522 lung
OVCAR-3 ovarian = system: OVCAR-3 ovarian
OVCAR-5 ovarian = system: OVCAR-5 ovarian
OVCAR-8 ovarian = system: OVCAR-8 ovarian
PC-3 prostate = system: PC-3 prostate
RPMI-8226 leukemia = system: RPMI-8226 leukemia
RXF 393 renal = system: RXF 393 renal
SF-268 CNS = system: SF-268 CNS
SF-295 CNS = system: SF-295 CNS
SF-539 CNS = system: SF-539 CNS
SK-MEL-2 melanoma = system: SK-MEL-2 melanoma
SK-MEL-28 melanoma = system: SK-MEL-28 melanoma
SK-MEL-5 melanoma = system: SK-MEL-5 melanoma
SK-OV-3 ovarian = system: SK-OV-3 ovarian
SN12C renal = system: SN12C renal
SNB-19 CNS = system: SNB-19 CNS
SNB-75 CNS = system: SNB-75 CNS
SR leukemia = system: SR leukemia
SW-620 colon = system: SW-620 colon
T-47D breast = system: T-47D breast
TK-10 renal = system: TK-10 renal
U251 CNS = system: U251 CNS
UACC-257 melanoma = system: UACC-257 melanoma
UACC-62 melanoma = system: UACC-62 melanoma
UO-31 renal = system: UO-31 renal
NCI/ADR-RES ovarian = system: NCI/ADR-RES ovarian
OVCAR-4 ovarian = system: OVCAR-4 ovarian

Measured: TGI

O=C(O)c1cccc(S(=O)(=O)NN2C(=O)CSC2c2ccc(Cl)cc2Cl)c1 (stereo not drawn)
47 µM: MDA-MB-435
83.5 µM: SR leukemia
40 µM: SF-539 CNS
75.8 µM: SK-MEL-28 melanoma
29.4 µM: 786-0 renal
91.4 µM: NCI-H522 lung
83.1 µM: HCT-116 colon
58.4 µM: HS 578T breast
44.7 µM: U251 CNS
86.3 µM: UACC-62 melanoma
30.2 µM: OVCAR-8 ovarian
34 µM: HL-60(TB) leukemia
not listed: NCI/ADR-RES ovarian | OVCAR-4 ovarian
> 100 µM: all other assays above

CCOc1c(OC)cc(-c2nc3n(n2)C(=O)C(CC)S3)cc1OC (stereo not drawn)
not listed: HOP-92 NSCLC | UO-31 renal
> 10 µM: all other assays above

OC(C#CCN1CCCC1)(c1ccccc1)c1ccccc1Cl (stereo not drawn)
51.5 µM: MDA-MB-435
80.2 µM: PC-3 prostate
57.5 µM: UACC-62 melanoma
35.2 µM: U251 CNS
38.7 µM: HOP-62 NSCLC
25 µM: COLO 205 colon
40.3 µM: UACC-257 melanoma
80.7 µM: OVCAR-4 ovarian
66.8 µM: A498 renal
61.5 µM: SK-MEL-2 melanoma
39.3 µM: SW-620 colon
41.6 µM: NCI-H522 lung
31.5 µM: SK-MEL-5 melanoma
68.3 µM: HL-60(TB) leukemia
94.8 µM: NCI/ADR-RES ovarian
73.6 µM: HS 578T breast | IGROV1 ovarian
50.9 µM: MDA-N
71.3 µM: ACHN renal
52.4 µM: SF-539 CNS
41.5 µM: NCI-H460 lung
91.2 µM: MOLT-4 leukemia
40.4 µM: HCC-2998 colon
32.2 µM: SK-MEL-28 melanoma
93.6 µM: CAKI-1 renal
30.1 µM: HT29 colon
32.9 µM: MCF7 breast
85.2 µM: HCT-116 colon
45.8 µM: SF-295 CNS
33.4 µM: LOX IMVI melanoma
not listed: 786-0 renal | HOP-92 NSCLC | M14 melanoma | MALME-3M melanoma | SNB-19 CNS
> 100 µM: all other assays above

CSC[C@H](NC(=O)COc1cccc2cnccc12)C(=O)NC(Cc1ccccc1)C(O)C(=O)N1CSC[C@H]1C(=O)NC(C)(C)C (stereo partly drawn)
91.4 µM: HL-60(TB) leukemia
84.9 µM: ACHN renal
63 µM: SF-268 CNS
99.8 µM: RXF 393 renal
31.4 µM: SF-539 CNS
not listed: CAKI-1 renal | EKVX NSCLC | HOP-92 NSCLC | SK-MEL-5 melanoma
> 100 µM: all other assays above

From PubChem BioAssay (NCI)
